Patent US20260055102A1 (Redx Pharma Limited, priority 2022, published 2026)

Columns and labels:
[1] = target: Recombinant human DDR2 (aa427-855 containing a GST tag) (Homo sapiens (Human), UniProt Q16832); test: LanthaScreen Eu Kinase Binding Assay DDR2; settings: Kinase Tracer 178 10 nM, at least two independent replicates; for IC50: read-out: DDR2 pIC50 (converted)
Experimental: (§1) DDR1 and DDR2 Biochemical Assay Method The capacity of compounds to bind to DDR1 and DDR2 was quantified using a LanthaScreen Eu Kinase Binding Assay. Recombinant human DDR1 (2.5 nM; aa440-876 containing a GST tag) and DDR2 (1.75 nM; aa427-855 containing a GST tag) were diluted in assay buffer (50 mM HEPES pH7.3, 10 mM MgCl2, 1 mM EGTA and 0.01% Tween) with various concentrations of compound in a 384-well plate and a volume of 5 uL. After a 30-minute incubation at room temperature, 2.5 uL of Eu-anti GST antibody (diluted to 1 nM in assay buffer) plus Kinase Tracer 178 (diluted in assay buffer to 5 nM for DDR1 and 10 nM for DDR2) were added to the plate. Following 60-minute incubation at room temperature, time-resolved fluorescence was measured on a BMG Labtech PHERAstar plate reader. DMSO (1%) and reference compound (1 μM) were used to generate the Max and Min assay signals, respectively. Data was analysed using a four-parameter logistic model to calculate IC50 values, with at least two independent replicates were performed for each compound.

[2] = target: Recombinant human DDR1 (aa440-876 containing a GST tag) (Homo sapiens (Human), UniProt Q08345); test: LanthaScreen Eu Kinase Binding Assay DDR1; settings: Kinase Tracer 178 5 nM, at least two independent replicates; for IC50: read-out: DDR1 pIC50 (converted)
Experimental: as §1

Chain of Recombinant human DDR2 (aa427-855 containing a GST tag) (Q16832 427-855): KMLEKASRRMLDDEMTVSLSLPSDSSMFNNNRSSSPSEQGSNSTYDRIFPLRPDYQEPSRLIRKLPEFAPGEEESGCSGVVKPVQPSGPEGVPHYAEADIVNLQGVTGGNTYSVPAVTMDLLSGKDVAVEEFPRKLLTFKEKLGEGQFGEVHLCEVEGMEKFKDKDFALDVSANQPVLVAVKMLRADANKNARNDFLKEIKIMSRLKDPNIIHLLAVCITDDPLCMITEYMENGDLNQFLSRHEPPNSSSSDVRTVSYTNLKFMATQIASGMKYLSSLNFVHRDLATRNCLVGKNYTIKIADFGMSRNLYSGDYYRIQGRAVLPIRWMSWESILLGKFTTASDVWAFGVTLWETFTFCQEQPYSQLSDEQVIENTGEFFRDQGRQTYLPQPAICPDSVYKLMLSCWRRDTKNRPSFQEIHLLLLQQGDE
Chain of Recombinant human DDR1 (aa440-876 containing a GST tag) (Q08345 other isoform, or with tags, fused parts or gaps): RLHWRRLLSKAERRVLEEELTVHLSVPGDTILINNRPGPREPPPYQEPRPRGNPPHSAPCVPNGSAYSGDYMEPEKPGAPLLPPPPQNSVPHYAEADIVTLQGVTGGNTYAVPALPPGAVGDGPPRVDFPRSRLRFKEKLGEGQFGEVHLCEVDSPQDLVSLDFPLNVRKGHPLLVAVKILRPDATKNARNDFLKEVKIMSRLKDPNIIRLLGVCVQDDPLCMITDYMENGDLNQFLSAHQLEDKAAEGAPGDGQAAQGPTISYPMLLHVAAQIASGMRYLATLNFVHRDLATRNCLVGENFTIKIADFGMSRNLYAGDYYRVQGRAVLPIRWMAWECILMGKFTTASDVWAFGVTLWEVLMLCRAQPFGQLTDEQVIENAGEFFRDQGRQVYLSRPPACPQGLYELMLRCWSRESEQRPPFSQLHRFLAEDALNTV

Row | Compound | IC50 [1] [nM] | IC50 [2] [nM] | DDR1 pIC50 [2] | DDR2 pIC50 [1]
1 | Cc1cc(-c2cncc3c2cnn3C)ccc1-n1c(=O)n(CC(=O)N[C@@H](C)C(F)(F)F)c2cccc(C)c21 [Example 82, 2-[4-methyl-3-[2-methyl-4-(1-methylpyrazolo[3,4-c]pyridin-4-yl)phenyl]-2-oxo-benzimidazol-1-yl]-N-[(1S)-2,2,2-trifluoro-1-methyl-ethyl]acetamide] | 10 to 100 |  | A (pIC50>8) | 
2 | Cc1cccc2c1n(-c1ccc(-c3cncc4c3cnn4C)cc1)c(=O)n2CC(=O)N1CCC[C@H]1CF [Example 45, 1-[2-[(2S)-2-(fluoromethyl)pyrrolidin-1-yl]-2-oxo-ethyl]-4-methyl-3-[4-(1-methylpyrazolo[3,4-c]pyridin-4-yl)phenyl]benzimidazol-2-one] | 10 to 100 |  | A (pIC50>8) | 
3 | Cc1cccc2c1n(-c1ncc(-c3cncc4c3cnn4C)cn1)c(=O)n2CC(=O)NCC(F)(F)F [Example 66, 2-[4-methyl-3-[5-(1-methylpyrazolo[3,4-c]pyridin-4-yl)pyrimidin-2-yl]-2-oxo-benzimidazol-1-yl]-N-(2,2,2-trifluoroethyl)acetamide] |  | 10 to 100 |  | D (pIC50≤6)
4 | O=C(Cn1c(=O)n(-c2ccc(-c3cncc4[nH]ncc34)cc2)c2ccccc21)NCC(F)(F)F [Example 41, 2-[2-oxo-3-[4-(1H-pyrazolo[3,4-c]pyridin-4-yl)phenyl]benzimidazol-1-yl]-N-(2,2,2-trifluoroethyl)acetamide] | 100 to 1000 | 10 to 100 |  | 
5 | C[C@@H](CC(F)(F)F)NC(=O)Cn1c(=O)n(-c2ccc(-c3cncc4c3cnn4C)cc2)c2ccccc21 [Example 62, 2-[3-[4-(1-methylpyrazolo[3,4-c]pyridin-4-yl)phenyl]-2-oxo-benzimidazol-1-yl]-N-[(1S)-3,3,3-trifluoro-1-methyl-propyl]acetamide] | 100 to 1000 |  | A (pIC50>8) | 
6 | Cc1cc(-c2cncc3c2cnn3C)ccc1-n1c(=O)n(CC(=O)NCC(F)(F)F)c2ccccc21 [Example 13, 2-[3-[2-methyl-4-(1-methylpyrazolo[3,4-c]pyridin-4-yl)phenyl]-2-oxobenzimidazol-1-yl]-N-(2,2,2-trifluoroethyl)acetamide] |  | 10 to 100 |  | D (pIC50≤6)
7 | Cc1cccc2c1n(-c1cnc(-c3cncc4c3cnn4C)cn1)c(=O)n2CC(=O)NCC(F)(F)F [Example 47, 2-[4-methyl-3-[5-(1-methylpyrazolo[3,4-c]pyridin-4-yl)pyrazin-2-yl]-2-oxo-benzimidazol-1-yl]-N-(2,2,2-trifluoroethyl)acetamide] | 100 to 1000 |  | A (pIC50>8) | 
8 | Cn1ncc2c(-c3ccc(-n4c(=O)n(CC(=O)N5CCO[C@@H](C(F)(F)F)C5)c5ccccc54)cc3)cncc21 [Example 37, 1-[4-(1-methylpyrazolo[3,4-c]pyridin-4-yl)phenyl]-3-[2-oxo-2-[(2R)-2-(trifluoromethyl)morpholin-4-yl]ethyl]benzimidazol-2-one] |  | 10 to 100 |  | D (pIC50≤6)
9 | Cn1ncc2c(-c3ccc(-n4c(=O)n(CC(=O)NCC(F)(F)F)c5cnccc54)cc3)cncc21 [Example 78, 2-[1-[4-(1-methylpyrazolo[3,4-c]pyridin-4-yl)phenyl]-2-oxo-imidazo[4,5-c]pyridin-3-yl]-N-(2,2,2-trifluoroethyl)acetamide] |  |  | D (pIC50≤6) | D (pIC50≤6)
10 | COc1cccc2c1n(-c1ccc(-c3cncc4c3cnn4C)cc1)c(=O)n2CC(=O)N[C@@H](C)C(F)(F)F [Example 85, 2-[4-methoxy-3-[4-(1-methylpyrazolo[3,4-c]pyridin-4-yl)phenyl]-2-oxo-benzimidazol-1-yl]-N-[(1S)-2,2,2-trifluoro-1-methyl-ethyl]acetamide] |  |  | D (pIC50≤6) | D (pIC50≤6)
11 | Cc1cccc2c1n(-c1ccc(-c3cncc4c3cnn4C)cc1)c(=O)n2CC(=O)N1CCO[C@H](C(F)(F)F)C1 [Example 42, 4-methyl-3-[4-(1-methylpyrazolo[3,4-c]pyridin-4-yl)phenyl]-1-[2-oxo-2-[(2S)-2-(trifluoromethyl)morpholin-4-yl]ethyl]benzimidazol-2-one] | 10 to 100 |  | A (pIC50>8) | 
12 | Cn1ncc2c(-c3ccc(-n4c(=O)n(CC(=O)NCC(F)(F)F)c5ccccc54)cc3F)cncc21 [Example 4, 2-[3-[3-fluoro-4-(1-methylpyrazolo[3,4-c]pyridin-4-yl)phenyl]-2-oxobenzimidazol-1-yl]-N-(2,2,2-trifluoroethyl)acetamide] |  | 10 to 100 |  | D (pIC50≤6)

Second part, the compound after the results:

Row | IC50 [1] [nM] | IC50 [2] [nM] | DDR1 pIC50 [2] | DDR2 pIC50 [1] | Compound
13 | 100 to 1000 | 10 to 100 |  |  | CC(NC(=O)Cn1c(=O)n(-c2ccc(-c3cncc4c3cnn4C)cc2)c2ccccc21)C(F)(F)F (stereo not drawn) [Example 17, 2-[3-[4-(1-methylpyrazolo[3,4-c]pyridin-4-yl)phenyl]-2-oxobenzimidazol-1-yl]-N-(2,2,2-trifluoro-1-methylethyl)acetamide]
14 |  | 100 to 1000 |  | D (pIC50≤6) | Cn1ncc2c(-c3ccc(-n4c(=O)n(CC(=O)NCC(F)(F)F)c5cccc(F)c54)cc3)cncc21 [Example 86, 2-[4-fluoro-3-[4-(1-methylpyrazolo[3,4-c]pyridin-4-yl)phenyl]-2-oxo-benzimidazol-1-yl]-N-(2,2,2-trifluoroethyl)acetamide]
15 | 10 to 100 |  | A (pIC50>8) |  | Cc1cccc2c1n(-c1ccc(-c3cncc4c3cnn4C)nc1)c(=O)n2CC(=O)N1CCC[C@H]1C(F)(F)F [Example 56, 4-methyl-3-[6-(1-methylpyrazolo[3,4-c]pyridin-4-yl)-3-pyridyl]-1-[2-oxo-2-[(2S)-2-(trifluoromethyl)pyrrolidin-1-yl]ethyl]benzimidazol-2-one]
16 | 10 to 100 |  | A (pIC50>8) |  | Cc1cccc2c1n(-c1ccc(-c3cncc4c3cnn4C)cc1)c(=O)n2CC(=O)N1CCC[C@H]1C(F)F [Example 43, 1-[2-[(2S)-2-(difluoromethyl)pyrrolidin-1-yl]-2-oxo-ethyl]-4-methyl-3-[4-(1-methylpyrazolo[3,4-c]pyridin-4-yl)phenyl]benzimidazol-2-one]
17 |  | 100 to 1000 |  | D (pIC50≤6) | Cn1ncc2c(-c3ccc(-n4c(=O)n(CC(=O)NC5CC5(F)F)c5ccccc54)cc3)cncc21 (stereo not drawn) [Example 36, N-(2,2-difluorocyclopropyl)-2-[3-[4-(1-methylpyrazolo[3,4-c]pyridin-4-yl)phenyl]-2-oxobenzimidazol-1-yl]acetamide]
18 |  |  | A (pIC50>8) | A (pIC50>8) | Cc1cccc2c1n(-c1ccc(-c3cncc4c3cnn4C)cc1)c(=O)n2CC(=O)N1CCC[C@H]1C(F)(F)F [Example 8, 4-methyl-3-[4-(1-methylpyrazolo[3,4-c]pyridin-4-yl)phenyl]-1-[2-oxo-2-[(2S)-2-(trifluoromethyl)pyrrolidin-1-yl]ethyl]benzimidazol-2-one]
19 |  |  | A (pIC50>8) | D (pIC50≤6) | Cn1ncc2c(-c3ccc(-n4c(=O)n(CC(=O)NCC(F)(F)F)c5ccccc54)c(Cl)c3)cncc21 [Example 87, 2-[3-[2-chloro-4-(1-methylpyrazolo[3,4-c]pyridin-4-yl)phenyl]-2-oxo-benzimidazol-1-yl]-N-(2,2,2-trifluoroethyl)acetamide]
20 | 100 to 1000 |  | A (pIC50>8) |  | Cc1nc(-c2cncc3c2cnn3C)cnc1-n1c(=O)n(CC(=O)NCC(F)(F)F)c2cccc(C)c21 [Example 96, 2-[4-methyl-3-[3-methyl-5-(1-methylpyrazolo[3,4-c]pyridin-4-yl)pyrazin-2-yl]-2-oxo-benzimidazol-1-yl]-N-(2,2,2-trifluoroethyl)acetamide]
21 | 10 to 100 |  | A (pIC50>8) |  | Cc1cccc2c1n(-c1ccc(-c3cncc4c3cnn4C)nc1)c(=O)n2CC(=O)N1CCO[C@H](C(F)(F)F)C1 [Example 54, 4-methyl-3-[6-(1-methylpyrazolo[3,4-c]pyridin-4-yl)-3-pyridyl]-1-[2-oxo-2-[(2S)-2-(trifluoromethyl)morpholin-4-yl]ethyl]benzimidazol-2-one]
22 |  |  | A (pIC50>8) | C (7≥pIC50>6) | Cc1cccc2c1n(-c1ccc(-c3cncc4c3cnn4C)cn1)c(=O)n2CC(=O)N[C@@H](C)C(F)(F)F [Example 57, 2-[4-methyl-3-[5-(1-methylpyrazolo[3,4-c]pyridin-4-yl)-2-pyridyl]-2-oxo-benzimidazol-1-yl]-N-[(1S)-2,2,2-trifluoro-1-methyl-ethyl]acetamide]
23 |  | 10 to 100 |  | D (pIC50≤6) | C[C@@H]1CCCN1C(=O)Cn1c(=O)n(-c2ccc(-c3cncc4c3cnn4C)cc2)c2ccccc21 [Example 27, 1-[4-(1-methylpyrazolo[3,4-c]pyridin-4-yl)phenyl]-3-[2-[(2R)-2-methylpyrrolidin-1-yl]-2-oxoethyl]benzimidazol-2-one]
24 |  |  | D (pIC50≤6) | D (pIC50≤6) | Cc1ncc2c(cnn2C)c1-c1ccc(-n2c(=O)n(CC(=O)NCC(F)(F)F)c3cccc(C)c32)cn1 [Example 109]
